Experimental data from ChEMBL document CHEMBL1201862, “PubChem BioAssay data set” (2004).
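Tested at 5 concentrations; 48 h exposure; 96-well plates; endpoints linearly interpolated, else capped at highest concentration. Abbreviation: GI50, concentration required for 50% inhibition of growth.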 The source made the active and inactive calls. Rule as the data show it: active = GI50 up to about 1.1 µM and inactive = higher.

Experiments:
Assay in all cases: NCI tumour cell line growth inhibition, 48 h
ACHN = system: ACHN
M19-MEL = system: M19-MEL
SR = system: SR
RXF 393 = system: RXF 393
SW-620 = system: SW-620
UACC-62 = system: UACC-62
MOLT-4 = system: MOLT-4
SNB-19 = system: SNB-19
TK-10 = system: TK-10
HCT-15 = system: HCT-15
UO-31 = system: UO-31
HOP-62 = system: HOP-62
UACC-257 = system: UACC-257
LXFL 529 = system: LXFL 529
KM-20L2 = system: KM-20L2
A498 = system: A498
COLO 205 = system: COLO 205
A549 = system: A549
KM12 = system: KM12
HCT-116 = system: HCT-116
CCRF-CEM = system: CCRF-CEM
XF498 = system: XF498
786-0 = system: 786-0
K562 = system: K562
CAKI-1 = system: CAKI-1
OVCAR-8 = system: OVCAR-8
DMS-273 = system: DMS-273
DMS-114 = system: DMS-114
SK-OV-3 = system: SK-OV-3
SF-539 = system: SF-539
OVCAR-4 = system: OVCAR-4
LOX IMVI = system: LOX IMVI
EKVX = system: EKVX
Malme-3M = system: Malme-3M
SNB-78 = system: SNB-78
OVCAR-3 = system: OVCAR-3
SF-295 = system: SF-295
HT-29 = system: HT-29
HOP-92 = system: HOP-92
NCI-H226 = system: NCI-H226
NCI-H23 = system: NCI-H23
HCC 2998 = system: HCC 2998
SN12C = system: SN12C
SF-268 = system: SF-268
HL-60 = system: HL-60
SK-MEL-2 = system: SK-MEL-2
SK-MEL-5 = system: SK-MEL-5
NCI-H460 = system: NCI-H460
DLD-1 = system: DLD-1
IGROV-1 = system: IGROV-1
HOP-18 = system: HOP-18
U-251 = system: U-251
RXF 631 = system: RXF 631
RPMI-8226 = system: RPMI-8226
SNB-75 = system: SNB-75
M14 = system: M14
SK-MEL-28 = system: SK-MEL-28
OVCAR-5 = system: OVCAR-5
NCI-H522 = system: NCI-H522

For `C=C1CCC(OC(C)=O)C2(C)C(OC(C)=O)CC3OC3(C)C2C(OC(C)=O)C2C(C)C(=O)OC2C1Cl` (stereo not drawn), the GI50 (ACHN) was > 100 µM (inactive), the GI50 (M19-MEL) was > 100 µM (inactive) and the GI50 (SR) was > 100 µM (inactive). The GI50 (RXF 393) was > 100 µM (inactive), the GI50 (SW-620) was > 100 µM (inactive) and the GI50 (UACC-62) was > 100 µM (inactive). The GI50 (MOLT-4) was > 100 µM (inactive), the GI50 (SNB-19) was > 100 µM (inactive) and the GI50 (TK-10) was > 100 µM (inactive). For the same compound, the GI50 (HCT-15) was greater than 100 µM, the GI50 (UO-31) was > 100 µM (inactive) and the GI50 (HOP-62) was > 100 µM (inactive). For the same compound, the GI50 (UACC-257) was > 100 µM (inactive), the GI50 (LXFL 529) was > 100 µM (inactive) and the GI50 (KM-20L2) was > 100 µM (inactive). For the same compound, the GI50 (A498) was > 100 µM (inactive), the GI50 (COLO 205) was > 100 µM (inactive) and the GI50 (A549) was > 100 µM (inactive). The GI50 (KM12) was > 100 µM (inactive), the GI50 (HCT-116) was > 100 µM (inactive) and the GI50 (CCRF-CEM) was > 100 µM (inactive). The GI50 (XF498) was > 100 µM (inactive), the GI50 (786-0) was > 100 µM (inactive) and the GI50 (K562) was > 100 µM (inactive). The GI50 (CAKI-1) was > 100 µM (inactive), the GI50 (OVCAR-8) was > 100 µM (inactive) and the GI50 (DMS-273) was > 100 µM (inactive). For the same compound, the GI50 (DMS-114) was > 100 µM (inactive), the GI50 (SK-OV-3) was > 100 µM (inactive) and the GI50 (SF-539) was > 100 µM (inactive). For the same compound, the GI50 (OVCAR-4) was > 100 µM (inactive), the GI50 (LOX IMVI) was > 100 µM (inactive) and the GI50 (EKVX) was > 100 µM (inactive). For the same compound, the GI50 (Malme-3M) was > 100 µM (inactive), the GI50 (SNB-78) was > 100 µM (inactive) and the GI50 (OVCAR-3) was > 100 µM (inactive). The GI50 (SF-295) was > 100 µM (inactive), the GI50 (HT-29) was > 100 µM (inactive) and the GI50 (HOP-92) was > 100 µM (inactive). For the same compound, the GI50 (NCI-H226) was > 100 µM (inactive), the GI50 (NCI-H23) was > 100 µM (inactive) and the GI50 (HCC 2998) was > 100 µM (inactive). For the same compound, the GI50 (SN12C) was > 100 µM (inactive), the GI50 (SF-268) was > 100 µM (inactive) and the GI50 (HL-60) was > 100 µM (inactive). For the same compound, the GI50 (SK-MEL-2) was > 100 µM (inactive), the GI50 (SK-MEL-5) was > 100 µM (inactive) and the GI50 (NCI-H460) was > 100 µM (inactive). For the same compound, the GI50 (DLD-1) was > 100 µM (inactive), the GI50 (IGROV-1) was > 100 µM (inactive) and the GI50 (HOP-18) was > 100 µM (inactive). For the same compound, the GI50 (U-251) was > 100 µM (inactive), the GI50 (RXF 631) was > 100 µM (inactive) and the GI50 (RPMI-8226) was > 100 µM (inactive). The GI50 (SNB-75) was > 100 µM (inactive), the GI50 (M14) was > 100 µM (inactive) and the GI50 (SK-MEL-28) was > 100 µM (inactive). For the same compound, the GI50 (OVCAR-5) was > 100 µM (inactive).

With `O=C1c2ccccc2C(=O)c2c1ccc1c2N=C(c2ccc(Br)cc2)CC(c2cccc3ccccc23)N1` (stereo not drawn) the GI50 (ACHN) was > 100 µM (inactive), the GI50 (SR) was 57.7 µM (inactive) and the GI50 (RXF 393) was > 100 µM (inactive). For the same compound, the GI50 (SW-620) was > 100 µM (inactive), the GI50 (UACC-62) was > 100 µM (inactive) and the GI50 (MOLT-4) was > 10 µM (inactive). For the same compound, the GI50 (SNB-19) was > 100 µM (inactive), the GI50 (TK-10) was > 100 µM (inactive) and the GI50 (HCT-15) was greater than 100 µM. For the same compound, the GI50 (UO-31) was > 100 µM (inactive), the GI50 (HOP-62) was > 100 µM (inactive) and the GI50 (UACC-257) was > 100 µM (inactive). The GI50 (LXFL 529) was > 100 µM (inactive), the GI50 (KM-20L2) was > 100 µM (inactive) and the GI50 (COLO 205) was > 100 µM (inactive). For the same compound, the GI50 (A549) was > 100 µM (inactive), the GI50 (KM12) was > 100 µM (inactive) and the GI50 (CCRF-CEM) was > 100 µM (inactive). For the same compound, the GI50 (XF498) was > 100 µM (inactive), the GI50 (786-0) was > 100 µM (inactive) and the GI50 (K562) was > 100 µM (inactive). The GI50 (CAKI-1) was > 100 µM (inactive), the GI50 (OVCAR-8) was > 100 µM (inactive) and the GI50 (DMS-273) was > 100 µM (inactive). The GI50 (DMS-114) was > 100 µM (inactive), the GI50 (NCI-H522) was > 100 µM (inactive) and the GI50 (SK-OV-3) was > 100 µM (inactive). For the same compound, the GI50 (SF-539) was > 100 µM (inactive), the GI50 (OVCAR-4) was > 100 µM (inactive) and the GI50 (LOX IMVI) was > 100 µM (inactive). For the same compound, the GI50 (EKVX) was > 100 µM (inactive), the GI50 (Malme-3M) was > 100 µM (inactive) and the GI50 (SNB-78) was > 100 µM (inactive). The GI50 (OVCAR-3) was > 100 µM (inactive), the GI50 (SF-295) was > 100 µM (inactive) and the GI50 (HT-29) was > 100 µM (inactive). The GI50 (NCI-H226) was > 100 µM (inactive), the GI50 (NCI-H23) was > 100 µM (inactive) and the GI50 (HCC 2998) was > 100 µM (inactive). The GI50 (SN12C) was > 100 µM (inactive), the GI50 (SF-268) was > 100 µM (inactive) and the GI50 (HL-60) was > 100 µM (inactive). The GI50 (SK-MEL-2) was > 100 µM (inactive), the GI50 (SK-MEL-5) was > 100 µM (inactive) and the GI50 (NCI-H460) was > 100 µM (inactive). For the same compound, the GI50 (DLD-1) was > 100 µM (inactive), the GI50 (IGROV-1) was > 100 µM (inactive) and the GI50 (HOP-18) was > 100 µM (inactive). For the same compound, the GI50 (U-251) was > 100 µM (inactive), the GI50 (RXF 631) was > 100 µM (inactive) and the GI50 (RPMI-8226) was 83.6 µM (inactive). The GI50 (SNB-75) was 94.6 µM (inactive), the GI50 (M14) was > 100 µM (inactive) and the GI50 (SK-MEL-28) was > 100 µM (inactive). The GI50 (OVCAR-5) was > 100 µM (inactive).
